Reference: patent US4950669A, “Methods and compositions for promoting growth of animals” (priority 1987, dated 1990)
Where a SMILES comes first, the peptide text is derived from it.

What was measured:
[1] = 28-day chicken growth study, feed or i.m. injection (Example XII); assay type: in vivo, chickens; settings: feed 30 g/ton
Description: Portions of N-morpholinyl-β-benzoyl-propionamide were admixed with chicken feed at 1 mg/kg and a 2 mg/kg, respectively. Another portion was formulated into an injectable formulation at a concentration of 2% in polyethylene glycol. The N-morpholinyl-β-benzoylpropionamide was then administered to chickens, either by i.m. injection or in feed, over 28-day period. One group of controls received no medication, while another group of controls received Bacitracin MD in its feed at 30 g/ton. Those chickens receiving intramuscular injections were injected once a week with a dosage of either 1 mg/kg or 2 mg/kg, based on body weight. Birds were weighed on days 0, 14 and 28.

[2] = 21-day battery study in chickens (Example XIII); assay type: in vivo; settings: feed 30 g/ton
Description: N-morpholinyl-β-benzoyl-propionamide was admixed with chicken feed at concentrations of 1.0 ppm, 7.5 ppm and 15 ppm. A 21-day battery study was conducted with the NMBP-containing feed. One group of controls was unmedicated, while a second control group received Bacitracin MD in its feed at 30 g/ton. The birds were fed ad libitum and weighed on days 7, 14 and 21. There were 10 birds per replication, 4 replications in controls and 2 replications per drug treatment.

[3] = 44-day floor pen study in chickens (Example XIV); assay type: in vivo; settings: feed 30 g/ton
Description: A 44-day floor pen study was conducted in which n-morpholinyl-β-benzoyl-propionamide was administered in chicken feed at concentrations of 1 ppm, 2.5 ppm, 5 ppm, 10 ppm, 20 ppm, 40 ppm and 60 ppm. One group of controls received no medication in its feed, while a second control group received Bacitracin MD in its feed at 30 g/ton. Birds were fed ad libitum. There were 5 replications per treatment, 50 birds per replication. Birds were weighed to determine weight gain and feed-to-gain ration after 35 days and 44 days.

[4] = 44-day floor-pen study in chickens (Example XV); assay type: in vivo; settings: feed 30 g/ton, 44 days
Excerpt: There were 60 chickens per replication, 3 replications per treatment. One group of controls was unmedicated, while a second control group received Bacitracin in the feed at 30 g/ton.

CC[C@H](C)[C@H](N)C1=N[C@H](C(=O)N[C@@H](CC(C)C)C(=O)N[C@H](CCC(=O)O)C(=O)N[C@H](C(=O)N[C@H]2CCCCNC(=O)[C@H](CC(N)=O)NC(=O)[C@@H](CC(=O)O)NC(=O)[C@H](Cc3cnc[nH]3)NC(=O)[C@@H](Cc3ccccc3)NC(=O)[C@H]([C@@H](C)CC)NC(=O)[C@@H](CCCN)NC2=O)[C@@H](C)CC)CS1 [Bacitracin MD, reference compound] (HELM PEPTIDE1{[CC[C@H](C)[C@H](N)C1=N[C@H](C(=O)[*:2])CS1].L.[dE].I.K.[NCCC[C@@H](N[*:1])C(=O)[*:2]].I.[dF].H.[dD].N}$PEPTIDE1,PEPTIDE1,5:R3-11:R2$$$V2.0)
Average Weight ([1]; Day 0 (baseline)): 98.6 g | Average Weight ([1]; Day 14): 475.6 g | Feed Conversion ([1]; Day 14): 1.37 | Weight Gain ([1]; Day 14): 377.0 g | Average Weight ([1]; Day 28): 1026.9 g | Feed Conversion ([1]; Day 28): 1.58 | Weight Gain ([1]; Day 28): 928.3 g | F/G ([2]; Day 7): 1.37 | Weight Gain ([2]; Day 7): 337 g | F/G ([2]; Day 14): 1.47 | Weight Gain ([2]; Day 14): 707 g | F/G ([2]; Day 21): 1.58 | Weight Gain ([2]; Day 21): 1155 g | F/G ([3]; Day 35): 1.59 | Weight Gain ([3]; Day 35): 1376 g | F/G ([3]; Day 44): 1.72 | Weight Gain ([3]; Day 44): 1909 g | growth results in words ([3]; house cleaned and disinfected just prior to study): lack of positive results | Average Live Bird Weight [4]: 2.11 kg | Feed Conversion [4]: 1.75
